The first assay addresses T1, Recombinant human cathepsin S (CatS) (Homo sapiens, UniProt P25774).
T1 construct: made in house
Kind of assay: Recombinant human cathepsin S (CatS) fluorogenic substrate inhibition assay. The format is biochemical.
Conditions: not given
As for the experimental part: Recombinant human cathepsin S (CatS) was expressed in the baculovirus system and purified in one step with a thiopropyl-sepharose column. […] The assay is run in 150 mM sodium acetate pH 5.0 containing 1.5 mM DTT and 150 mM NaCl. […] Measurements are taken every min for 20 min. The rate is calculated from the slope of the increase in fluorescence and the percent inhibition is calculated from this.
T1 sequence (P25774 115-331): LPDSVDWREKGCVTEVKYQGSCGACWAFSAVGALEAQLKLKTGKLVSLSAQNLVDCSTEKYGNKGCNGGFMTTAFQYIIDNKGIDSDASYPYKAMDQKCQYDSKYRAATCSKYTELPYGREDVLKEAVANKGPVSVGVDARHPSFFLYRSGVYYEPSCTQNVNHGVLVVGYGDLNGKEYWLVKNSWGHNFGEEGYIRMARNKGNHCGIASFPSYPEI
On to `CS(=O)(=O)N1CCc2c(c(-c3ccc(C(F)(F)F)c(CNC(=O)c4cccc(C(=O)O)c4)c3)nn2CC(O)CN2CCCC2)C1` (stereo not drawn) [Example 191, N-{5-[1-(2-Hydroxy-3-pyrrolidin-1-yl-propyl)-5-methanesulfonyl-4,5,6,7-tetrahydro-1H-pyrazolo[4,3-c]pyridin-3-yl]-2-trifluoromethyl-benzyl]-isophthalamic acid], for which the IC50 was found to be 770 nM.

Regarding `CS(=O)(=O)N1CCc2c(c(-c3ccc(C(F)(F)F)c(CNC(=O)Oc4ccccc4)c3)nn2CCCN2CCC3(CCNC3=O)CC2)C1` [Example 148, (5-{5-Methanesulfonyl-1-[3-(1-oxo-2,8-diaza-spiro[4.5]dec-8-yl)-propyl]-4,5,6,7-tetrahydro-1H-pyrazolo[4,3-c]pyridin-3-yl}-2-trifluoromethyl-benzyl)-carbamic acid phenyl ester], the IC50 was 200 nM.

For the compound `CS(=O)(=O)N1CCc2c(c(-c3ccc(C(F)(F)F)c(CNC(=O)c4ccc(F)cc4)c3)nn2CC(O)CN2CCC(C(N)=O)CC2)C1` (stereo not drawn) [Example 18, 1-[3-(3-[3-[(4-Fluoro-benzoylamino)-methyl]-4-trifluoromethyl-phenyl]-5-methanesulfonyl-4,5,6,7-tetrahydro-pyrazolo[4,3-c]pyridin-1-yl)-2-hydroxy-propyl]-piperidine-4-carboxylic acid amide], the IC50 was 70 nM.

The same assay, now with this note: average of results obtained; substrate Z-Valine-Valine-Arginine-AMC 10 μM, pH 5.0; read-out: CatS IC50.
`CS(=O)(=O)N1CCc2c(c(-c3ccc(Cl)c(CNC(=O)c4ccc(Cl)c(Cl)c4)c3)nn2CCCN2CCCC2)C1` [Example 87, 3,4-Dichloro-N-{2-chloro-5-[5-methanesulfonyl-1-(3-pyrrolidin-1-yl-propyl)-4,5,6,7-tetrahydro-1H-pyrazolo[4,3-c]pyridin-3-yl]-benzyl}-benzamide]: the IC50 is 1020 nM.

Regarding `CS(=O)(=O)N1CCc2c(c(-c3ccc(C(F)(F)F)c(CNC(=O)c4ccccc4Cl)c3)nn2CC(O)CN2CCCC2)C1` (stereo not drawn) [Example 62, 2-Chloro-N-{5-[1-(2-hydroxy-3-pyrrolidin-1-yl-propyl)-5-methanesulfonyl-4,5,6,7-tetrahydro-1H-pyrazolo[4,3-c]pyridin-3-yl]-2-trifluoromethyl-benzyl}-benzamide], the IC50 turned out to be 220 nM.

As for `CS(=O)(=O)N1CCc2c(c(-c3ccc(Cl)c(CNC(=O)c4ccccc4)c3)nn2CC(O)CN2CCCCC2)C1` (stereo not drawn) [Example 231, N-{2-Chloro-5-[1-(2-hydroxy-3-piperidin-1-yl-propyl)-5-methanesulfonyl-4,5,6,7-tetrahydro-1H-pyrazolo[4,3-c]pyridin-3-yl]-benzyl}-benzamide], the IC50 worked out at 800 nM.

On to `CS(=O)(=O)N1CCc2c(c(-c3ccc(C(F)(F)F)c(CNC(=O)c4ccc(F)cc4Cl)c3)nn2CC(O)CN2CCCC2)C1` (stereo not drawn) [Example 63, 2-Chloro-4-fluoro-N-{5-[1-(2-hydroxy-3-pyrrolidin-1-yl-propyl)-5-methanesulfonyl-4,5,6,7-tetrahydro-1H-pyrazolo[4,3-c]pyridin-3-yl]-2-trifluoromethyl-benzyl}-benzamide], for which the IC50 was 250 nM.

`CS(=O)(=O)N1CCc2c(c(-c3ccc(C(F)(F)F)c(CNC(=O)c4cccc(O)c4)c3)nn2CC(O)CN2CCCC2)C1` (stereo not drawn) [Example 58, 3-Hydroxy-N-{5-[1-(2-hydroxy-3-pyrrolidin-1-yl-propyl)-5-methanesulfonyl-4,5,6,7-tetrahydro-1H-pyrazolo[4,3-c]pyridin-3-yl]-2-trifluoromethyl-benzyl}-benzamide]: the IC50 was 420 nM.

In the case of `CC(=O)NC1CCN(CC(Cn2nc(-c3ccc(Cl)c(CNC(=O)c4ccc(F)cc4)c3)c3c2CCN(S(C)(=O)=O)C3)OC(C)=O)CC1` (stereo not drawn) [Example 80, Acetic acid 1-(4-acetylamino-piperidin-1-ylmethyl)-2-(3-{4-chloro-3-[(4-fluoro-benzoylamino)-methyl]-phenyl}-5-methanesulfonyl-4,5,6,7-tetrahydro-pyrazolo[4,3-c]pyridin-1-yl)-ethyl ester], the IC50 was found to be 100 nM.

`Cc1ccc(C(=O)NCc2cc(-c3nn(CC(O)CN4CCCC4)c4c3CN(S(C)(=O)=O)CC4)ccc2C(F)(F)F)cc1` (stereo not drawn) [Example 214]: the IC50 came to 580 nM.

Regarding `CS(=O)(=O)N1CCc2c(c(-c3ccc(C(F)(F)F)c(CNC(=O)C4CCCCCC4)c3)nn2CC(O)CN2CCCC2)C1` (stereo not drawn) [Example 160, Cycloheptanecarboxylic acid 5-[1-(2-hydroxy-3-pyrrolidin-1-yl-propyl)-5-methanesulfonyl-4,5,6,7-tetrahydro-1H-pyrazolo[4,3-c]pyridin-3-yl]-2-trifluoromethyl-benzylamide], the IC50 was determined as 320 nM.

As for `CC(C)CC(=O)NCc1cc(-c2nn(CC(O)CN3CCC(NC(=O)OC(C)(C)C)CC3)c3c2CN(S(C)(=O)=O)CC3)ccc1C(F)(F)F` (stereo not drawn) [Example 244], the IC50 was 50 nM.

Consider `CC(=O)N1CCC(C(=O)NCc2cc(-c3nn(CC(O)CN4CCCC4)c4c3CN(S(C)(=O)=O)CC4)ccc2C(F)(F)F)CC1` (stereo not drawn) [Example 242, 1-Acetyl-piperidine-4-carboxylic acid 5-[1-(2-hydroxy-3-pyrrolidin-1-yl-propyl)-5-methanesulfonyl-4,5,6,7-tetrahydro-1H-pyrazolo[4,3-c]pyridin-3-yl]-2-trifluoromethyl-benzylamide], for which the IC50 was found to be 1030 nM.

For the compound `CS(=O)(=O)N1CCc2c(c(-c3ccc(Cl)c(CC(=O)Nc4ccc(F)cc4)c3)nn2CCCN2CCOCC2)C1` [Example 290, 2-{2-Chloro-5-[5-methanesulfonyl-1-(3-morpholin-4-yl-propyl)-4,5,6,7-tetrahydro-1H-pyrazolo[4,3-c]pyridin-3-yl]-phenyl}-N-(4-fluoro-phenyl)-acetamide], the IC50 stood at 1850 nM.

For the compound `CS(=O)(=O)N1CCc2c(c(-c3ccc(Cl)c(CNC(=O)c4ccccc4)c3)nn2CC(O)CN2CCOCC2)C1` (stereo not drawn) [Example 220, N-{2-Chloro-5-[1-(2-hydroxy-3-morpholin-4-yl-propyl)-5-methanesulfonyl-4,5,6,7-tetrahydro-1H-pyrazolo[4,3-c]pyridin-3-yl]-benzyl}-benzamide], the half-inhibitory concentration (IC50) came out at 650 nM.

Take `CC(C)CC(=O)NCc1cc(-c2nn(CC(O)CN3CCCC3)c3c2CN(S(C)(=O)=O)CC3)ccc1C(F)(F)F` (stereo not drawn) [Example 281, N-{5-[1-(2-Hydroxy-3-pyrrolidin-1-yl-propyl)-5-methanesulfonyl-4,5,6,7-tetrahydro-1H-pyrazolo[4,3-c]pyridin-3-yl]-2-trifluoromethyl-benzyl]-3-methyl-butyramide]: the IC50 stood at 370 nM.

As for `CC(=O)NC1CCN(CC(O)Cn2nc(-c3ccc(C(F)(F)F)c(CNC(=O)c4ccc(F)cc4)c3)c3c2CCN(S(C)(=O)=O)C3)C1` (stereo not drawn) [Example 93, N-(5-{1-[3-(3-Acetylamino-pyrrolidin-1-yl)-2-hydroxy-propyl]-5-methanesulfonyl-4,5,6,7-tetrahydro-1H-pyrazolo[4,3-c]pyridin-3-yl}-2-trifluoromethyl-benzyl)-4-fluoro-benzamide], the IC50 was found to be 170 nM.

Regarding `CS(=O)(=O)N1CCc2c(c(-c3ccc(Cl)c(CNC(=O)c4ccccc4)c3)nn2CC(O)CN2CCCC2)C1` (stereo not drawn) [Example 69, N-{2-Chloro-5-[1-(2-hydroxy-3-pyrrolidin-1-yl-propyl)-5-methanesulfonyl-4,5,6,7-tetrahydro-1H-pyrazolo[4,3-c]pyridin-3-yl]-benzyl}-benzamide], the IC50 turned out to be 500 nM.

On to `CS(=O)(=O)N1CCc2c(c(-c3ccc(C(F)(F)F)c(CNC(=O)c4ccc(F)cc4)c3)nn2CC(O)CN2CCC(C(=O)O)CC2)C1` (stereo not drawn) [Example 90, 1-[3-(3-{3-[(4-Fluoro-benzoylamino)-methyl]-4-trifluoromethyl-phenyl}-5-methanesulfonyl-4,5,6,7-tetrahydro-pyrazolo[4,3-c]pyridin-1-yl)-2-hydroxy-propyl]-piperidine-4-carboxylic acid], for which the IC50 worked out at 150 nM.

For `CS(=O)(=O)N1CCc2c(c(-c3ccc(Cl)c(CNS(=O)(=O)c4ccc(Cl)c(Cl)c4)c3)nn2CCCN2CCCC2)C1` [Example 197, 3,4-Dichloro-N-{2-chloro-5-[5-methanesulfonyl-1-(3-pyrrolidin-1-yl-propyl)-4,5,6,7-tetrahydro-1H-pyrazolo[4,3-c]pyridin-3-yl]-benzyl}-benzenesulfonamide], the IC50 came out at 5400 nM.

Consider `CS(=O)(=O)N1CCc2c(c(-c3ccc(C(F)(F)F)c(CNC(=O)c4ccc(F)cc4)c3)nn2CC(O)CN2CCC(O)C2)C1` (stereo not drawn) [Example 27, 4-Fluoro-N-(5-{1-[2-hydroxy-3-(3-hydroxy-pyrrolidin-1-yl)-propyl]-5-methanesulfonyl-4,5,6,7-tetrahydro-1H-pyrazolo[4,3-c]pyridin-3-yl}-2-trifluoromethyl-benzyl)-benzamide], for which the IC50 amounted to 230 nM.

In the case of `CS(=O)(=O)N1CCc2c(c(-c3ccc(Cl)c(CNC(=O)c4ccc(F)cc4)c3)nn2CC(O)CN2CCC(F)(F)C2)C1` (stereo not drawn) [Example 84, N-(2-Chloro-5-{1-[3-(3,3-difluoro-pyrrolidin-1-yl)-2-hydroxy-propyl]-5-methanesulfonyl-4,5,6,7-tetrahydro-1H-pyrazolo[4,3-c]pyridin-3-yl}-benzyl)-4-fluoro-benzamide], the IC50 amounted to 180 nM.

Consider `CS(=O)(=O)N1CCc2c(c(-c3ccc(C(F)(F)F)c(CNC(=O)c4cc5ccccc5s4)c3)nn2CC(O)CN2CCC3(CCNC3=O)CC2)C1` (stereo not drawn) [Example 157, Benzo[b]thiophene-2-carboxylic acid 5-{1-[2-hydroxy-3-(1-oxo-2,8-diaza-spiro[4.5]dec-8-yl)-propyl]-5-methanesulfonyl-4,5,6,7-tetrahydro-1H-pyrazolo[4,3-c]pyridin-3-yl}-2-trifluoromethyl-benzylamide], for which the IC50 was 270 nM.

Consider `CS(=O)(=O)N1CCc2c(c(-c3ccc(C(F)(F)F)c(CNC(=O)CN4CCOCC4)c3)nn2CCCN2CCC(N3CCCC3=O)CC2)C1` [Example 39, N-[5-(5-Methanesulfonyl-1-{3-[4-(2-oxo-pyrrolidin-1-yl)-piperidin-1-yl]-propyl}-4,5,6,7-tetrahydro-1H-pyrazolo[4,3-c]pyridin-3-yl)-2-trifluoromethyl-benzyl]-2-morpholin-4-yl-acetamide], for which the IC50 stood at 440 nM.

The values above are taken from patent US20090118274A1, “MONOCYCLIC AMINOPROPYL TETRAHYDRO-PYRAZOLO-PYRIDINE MODULATORS OF CATHEPSIN S” (priority 2007, published 2009).
